Here are results for eleven molecules from ChEMBL document CHEMBL1201862, “PubChem BioAssay data set” (2004).

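Grown in 96-well plates, cells were treated for 48 hours with each compound at five concentrations. Insufficient inhibition: endpoint recorded as highest concentration tested. The concentration for 50% growth inhibition is given as GI50.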 The source made the active and inactive calls. Cut-off read from the data, not from the text of the source: active = GI50 up to about 1.1 µM and inactive = higher.

Among the test systems are MCF7; RXF 393; CAKI-1; IGROV-1; SK-MEL-2; EKVX; CCRF-CEM; MOLT-4; SF-295; ACHN; M14; SN12C; NCI/ADR-RES; HOP-62; SK-OV-3; T47D; SK-MEL-5; KM12; SF-539.
Holding throughout (assay): NCI-60 cell line screen, 48 h

Turning to `COC(=O)C(Cc1nc2ccccc2nc1O)C(=O)C(=O)Nc1cc(C(F)(F)F)ccc1Cl` (centres undefined), the GI50 is 14.4 µM (inactive) with MCF7; 13.8 µM (inactive) in the assay on RXF 393; 15.4 µM (inactive) in the assay on CAKI-1; 12.2 µM (inactive) in the assay on IGROV-1; 16.1 µM (inactive) with SK-MEL-2; 15 µM (inactive) with EKVX. Further, the GI50 in the assay with CCRF-CEM was 1.51 µM (inactive); with MOLT-4, 6.17 µM (inactive); in the assay on SF-295 it was 28.3 µM (inactive); with ACHN, 12.1 µM (inactive); with M14, 16.7 µM (inactive); in the assay with SN12C, 20.5 µM (inactive). Also, the GI50 with NCI/ADR-RES was 15.6 µM (inactive); in the assay on HOP-62 it was 17.4 µM (inactive); in the assay with SK-OV-3, 35.3 µM (inactive); in the assay on T47D, 15.1 µM (inactive); with SK-MEL-5, 20.4 µM (inactive); in the assay with KM12, 14.5 µM (inactive).
With `COC(=O)[C@H](Cc1c[nH]c2ccccc12)NC(=O)c1ccccc1I`, the GI50 with MCF7 is 37.8 µM (inactive); in the assay with RXF 393, 18.7 µM (inactive); in the assay with CAKI-1, 20.7 µM (inactive); in the assay with IGROV-1, 31.8 µM (inactive); in the assay on SK-MEL-2, 19.9 µM (inactive); with EKVX it was > 100 µM (inactive). Further, the GI50 in the assay with MOLT-4 was 17.5 µM (inactive); in the assay with SF-295 it was 42.4 µM (inactive); with ACHN, 17.1 µM (inactive); with M14, 15.7 µM (inactive); with SN12C it was > 100 µM (inactive); in the assay on NCI/ADR-RES, 32.1 µM (inactive). Further, the GI50 in the assay on HOP-62 was 30.5 µM (inactive); in the assay on SK-OV-3, 33.6 µM (inactive); with T47D it was 22.6 µM (inactive); in the assay on SK-MEL-5, 16.1 µM (inactive); in the assay on KM12, 41.4 µM (inactive).
In the case of `C/C(=N\NC(N)=S)c1cccs1.OB(O)c1ccccc1`, the GI50 with MCF7, in the assay with IGROV-1, in the assay on CCRF-CEM, in the assay with MOLT-4, in the assay on SF-295 and in the assay on ACHN was > 100 µM (inactive) throughout. In addition, the GI50 with SF-539, with M14, in the assay on SN12C, with NCI/ADR-RES, with HOP-62 and in the assay with SK-OV-3 was > 100 µM (inactive) in each case. Also, the GI50 was 75 µM (inactive) in the assay with T47D, > 100 µM (inactive) in the assay with SK-MEL-5 and > 100 µM (inactive) with KM12.
`COc1ccc(/C=N/n2c(=O)[nH]c3ccccc3c2=O)cc1`: the GI50 with MCF7 is > 100 µM (inactive); in the assay on CAKI-1, > 100 µM (inactive); with IGROV-1, > 100 µM (inactive); in the assay on SK-MEL-2 it was > 100 µM (inactive); in the assay with EKVX it was 59.8 µM (inactive); with CCRF-CEM, > 100 µM (inactive). The GI50 with MOLT-4, with SF-295, in the assay with ACHN, in the assay with SF-539, with M14 and in the assay with SN12C was > 100 µM (inactive) each time. Also, the GI50 in the assay with NCI/ADR-RES, with HOP-62, with SK-OV-3, with T47D, in the assay on SK-MEL-5 and with KM12 was > 100 µM (inactive) each time.
Consider `CC(=O)O/C(=C(/C#N)C(=O)O)C1C(C(=O)O)C(c2ccccc2[N+](=O)[O-])C=C(c2ccco2)N1c1ccncc1` (centres undefined), for which the GI50 was 1.03 µM (active) with MCF7; 4.3 µM (inactive) with CAKI-1; 1.12 µM (inactive) in the assay with IGROV-1; 9.25 µM (inactive) with SK-MEL-2; 9.25 µM (inactive) in the assay on EKVX; 2.43 µM (inactive) in the assay with CCRF-CEM. In addition, the GI50 in the assay on MOLT-4 was 2.54 µM (inactive); with SF-295, 7.67 µM (inactive); in the assay on ACHN it was 2.17 µM (inactive); in the assay on SF-539, 1.95 µM (inactive); in the assay on M14, 2.87 µM (inactive); in the assay on SN12C it was 4.86 µM (inactive). The GI50 in the assay on NCI/ADR-RES was 8.57 µM (inactive); in the assay on HOP-62, 7.82 µM (inactive); in the assay with SK-OV-3 it was 11.6 µM (inactive); with T47D it was 6.73 µM (inactive); with SK-MEL-5, 2.94 µM (inactive); in the assay on KM12, 1.48 µM (inactive).
For `O=C(/N=C1/NCC(CN2CCN(c3ccccc3)CC2)O1)Nc1ccccc1` (centres undefined), the GI50 in the assay on MCF7, in the assay on RXF 393, with CAKI-1, in the assay on IGROV-1, with SK-MEL-2 and in the assay with EKVX was > 100 µM (inactive) in each case. Besides, the GI50 is > 100 µM (inactive) with CCRF-CEM; 93.1 µM (inactive) with MOLT-4; > 100 µM (inactive) in the assay on SF-295; > 100 µM (inactive) in the assay with ACHN; > 100 µM (inactive) in the assay on M14; > 100 µM (inactive) in the assay on SN12C. The GI50 in the assay with NCI/ADR-RES, in the assay on HOP-62, in the assay on SK-OV-3, in the assay with T47D, in the assay on SK-MEL-5 and in the assay with KM12 was > 100 µM (inactive) each time.
As to `c1ccc(CCCN2C3CCC2CN(CCOC(c2ccccc2)c2ccccc2)C3)cc1`, the GI50 in the assay with MCF7 was 12.6 µM (inactive); in the assay on CAKI-1 it was 11.3 µM (inactive); in the assay on IGROV-1 it was 13.8 µM (inactive); in the assay on SK-MEL-2, 10.6 µM (inactive); with EKVX, 7.46 µM (inactive); in the assay on CCRF-CEM, 9.82 µM (inactive). For the same molecule, the GI50 in the assay on MOLT-4 is 8.43 µM (inactive); in the assay with SF-295, 12.2 µM (inactive); in the assay with ACHN, 13.4 µM (inactive); in the assay on SF-539 it was 8.39 µM (inactive); in the assay with M14, 4.99 µM (inactive); in the assay with SN12C it was 12.1 µM (inactive). Further, the GI50 was 8.17 µM (inactive) in the assay on NCI/ADR-RES; 13.5 µM (inactive) with HOP-62; 13.7 µM (inactive) in the assay with SK-OV-3; 3.24 µM (inactive) in the assay with T47D; 3.3 µM (inactive) in the assay with SK-MEL-5; 5.66 µM (inactive) with KM12.
For `Cc1ccc(OC2CC(n3cnc4ncnc(Cl)c43)OC2Oc2ccc(C)cc2)cc1` (centres undefined), the GI50 was 5.96 µM (inactive) in the assay with MCF7; 2.11 µM (inactive) in the assay on CAKI-1; 17 µM (inactive) in the assay on IGROV-1; 13.6 µM (inactive) in the assay with SK-MEL-2; 33.3 µM (inactive) in the assay with EKVX; 4.49 µM (inactive) in the assay with MOLT-4. For the same molecule, the GI50 in the assay with SF-295 was 21.1 µM (inactive); in the assay with ACHN, 2.59 µM (inactive); in the assay with SF-539 it was 7.78 µM (inactive); in the assay on M14 it was 18.1 µM (inactive); with SN12C it was 29.6 µM (inactive); with NCI/ADR-RES it was 18.8 µM (inactive). The GI50 in the assay on HOP-62 is 27.3 µM (inactive); in the assay with SK-OV-3 it was > 100 µM (inactive); in the assay on T47D, 12.6 µM (inactive); in the assay on SK-MEL-5, 18.5 µM (inactive); in the assay on KM12, 18.4 µM (inactive).
On to `C/C=C\C(CC(=O)NCCC1CN(C(=O)c2ccccc2)c2ccccc21)CC(=O)OC` (centres undefined), for which the GI50 in the assay with MCF7, in the assay on RXF 393, in the assay with CAKI-1, in the assay on IGROV-1, in the assay on SK-MEL-2 and in the assay with EKVX was > 100 µM (inactive) each time. Further, the GI50 in the assay on MOLT-4, in the assay with SF-295, in the assay on ACHN, in the assay on M14, in the assay on NCI/ADR-RES and in the assay with HOP-62 was > 100 µM (inactive) in each case. For the same molecule, the GI50 is > 100 µM (inactive) in the assay on SK-OV-3, > 100 µM (inactive) with T47D, 97.3 µM (inactive) in the assay with SK-MEL-5 and > 100 µM (inactive) in the assay on KM12.
Take `COc1ccccc1/N=N/c1c(O)c(S(=O)(=O)O)cc2cc(S(=O)(=O)O)ccc12`: the GI50 in the assay with RXF 393 is > 100 µM (inactive); in the assay with CAKI-1 it was > 100 µM (inactive); in the assay with IGROV-1 it was > 100 µM (inactive); with SK-MEL-2 it was 53.5 µM (inactive); in the assay on EKVX, > 100 µM (inactive); in the assay with CCRF-CEM it was > 100 µM (inactive). The GI50 with MOLT-4, in the assay with SF-295, in the assay with ACHN, in the assay with M14, in the assay on SN12C and with NCI/ADR-RES was > 100 µM (inactive) each time. For the same molecule, the GI50 in the assay with HOP-62, with SK-OV-3, in the assay on T47D, in the assay on SK-MEL-5 and in the assay on KM12 was > 100 µM (inactive) throughout.
For `O=C(NC(Cc1c[nH]cn1)C(=O)N1CCCC1)C1CCCC1` (centres undefined), the GI50 in the assay with MCF7, in the assay on RXF 393, in the assay with CAKI-1, in the assay with IGROV-1, in the assay on EKVX and in the assay with CCRF-CEM was > 100 µM (inactive) in each case. Besides, the GI50 in the assay with MOLT-4, in the assay with SF-295, in the assay on ACHN, in the assay on M14, in the assay with SN12C and with NCI/ADR-RES was > 100 µM (inactive) in each case. The GI50 was > 100 µM (inactive) in the assay with HOP-62; > 100 µM (inactive) in the assay with SK-OV-3; > 10 µM (inactive) in the assay on T47D; > 100 µM (inactive) in the assay on SK-MEL-5; > 100 µM (inactive) with KM12.
